Laboratory results published in patent US20220056019A1, “FARNESOID X RECEPTOR AGONISTS AND USES THEREOF” (Metacrine, Inc., priority 2018, published 2022).

Molecular target: T1, hFXR (Homo sapiens, UniProt Q96RI1)
T1 construct: expressed in transfected cells; host or cells: CV-1 cells
T1 sequence (Q96RI1 1-486): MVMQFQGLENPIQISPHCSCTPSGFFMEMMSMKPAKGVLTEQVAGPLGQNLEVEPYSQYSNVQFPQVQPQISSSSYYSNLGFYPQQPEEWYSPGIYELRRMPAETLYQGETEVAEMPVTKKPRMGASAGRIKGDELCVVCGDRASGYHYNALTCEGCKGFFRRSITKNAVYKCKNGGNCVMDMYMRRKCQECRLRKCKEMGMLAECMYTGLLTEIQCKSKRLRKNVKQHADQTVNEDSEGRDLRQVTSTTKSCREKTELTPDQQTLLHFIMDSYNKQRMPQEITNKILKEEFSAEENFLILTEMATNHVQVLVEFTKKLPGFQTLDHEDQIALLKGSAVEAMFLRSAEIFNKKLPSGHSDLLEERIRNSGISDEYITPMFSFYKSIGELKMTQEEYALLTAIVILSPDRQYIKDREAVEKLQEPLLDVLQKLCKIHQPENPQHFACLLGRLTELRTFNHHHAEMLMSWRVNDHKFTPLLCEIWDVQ
T1 sequence (P19793 1-462 partner): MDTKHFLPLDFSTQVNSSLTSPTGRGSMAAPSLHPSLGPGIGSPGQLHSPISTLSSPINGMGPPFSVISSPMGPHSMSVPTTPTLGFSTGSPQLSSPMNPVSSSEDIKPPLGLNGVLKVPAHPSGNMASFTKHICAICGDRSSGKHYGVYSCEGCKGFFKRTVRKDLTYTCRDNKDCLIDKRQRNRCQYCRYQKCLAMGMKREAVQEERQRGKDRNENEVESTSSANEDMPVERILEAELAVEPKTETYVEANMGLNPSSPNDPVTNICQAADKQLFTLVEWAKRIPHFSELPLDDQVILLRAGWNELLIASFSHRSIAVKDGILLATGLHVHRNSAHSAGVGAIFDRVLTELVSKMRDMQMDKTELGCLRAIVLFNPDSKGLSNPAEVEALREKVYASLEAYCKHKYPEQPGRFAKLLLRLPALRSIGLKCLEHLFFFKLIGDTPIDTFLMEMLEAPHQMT
Test: In Vitro FXR Assay (TK): TK-ECRE-luc reporter in transfected CV-1 cells
Assay type: cell-based
Settings: 18 hrs incubation, luminescence
How it was run: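 First, CV-1 cells were grown overnight in stripped-serum DMEM, then transfected for 18 h with expression plasmids for human FXR and RXR plus a TK-ECRE luciferase reporter and YFP. Next, serially diluted compounds were applied for 18 h, and lysates were read by luminescence.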

Structure (SMILES) | EC50 [nM]
COc1ccc([C@H]2CC[C@H](CN(c3cc(-c4cnc(C(C)C)s4)ccn3)C(=O)[C@H]3CC[C@H](OC(=O)N4CCN(C)CC4)CC3)CC2)cc1C [Compound 2.40, trans-4-((4-(2-Isopropylthiazol-5-yl)pyridin-2-yl)((trans-4-(4-methoxy-3-methylphenyl)cyclohexyl)methyl)carbamoyl)cyclohexyl 4-methylpiperazine-1-carboxylate] | ≤ 50
COc1ccc([C@H]2CC[C@H](CN(c3cc(-c4cnn(C(C)C)c4)ccn3)C(=O)[C@H]3CC[C@H](OC(=O)NC[C@H](F)CF)CC3)CC2)cc1C [Compound 2.33, trans-4-((4-(1-Isopropyl-1H-pyrazol-4-yl)pyridin-2-yl)(((trans)-4-(4-methoxy-3-methylphenyl)cyclohexyl)methyl)carbamoyl) cyclohexyl((S)-2,3-difluoropropyl) carbamate] | ≤ 50
COc1ccc([C@H]2CC[C@H](CN(c3cc(-c4cnn(C(C)C)c4)ccn3)C(=O)[C@H]3CC[C@H](OC(=O)NC(CF)CF)CC3)CC2)cc1C [Compound 2.35, trans-4-((4-(1-Isopropyl-1H-pyrazol-4-yl)pyridin-2-yl)(((trans)-4-(4-methoxy-3-methylphenyl)cyclohexyl)methyl)carbamoyl) cyclohexyl(1,3-difluoropropan-2-yl) carbamate] | ≤ 50
CCOc1ncc(-c2ccnc(N(C[C@H]3CC[C@H](c4ccc(OC)c(C)c4)CC3)C(=O)[C@H]3CC[C@H](OC(=O)N4CC(O)C4)CC3)c2)s1 [Compound 2.43, trans-4-((4-(2-Ethoxythiazol-5-yl)pyridin-2-yl)((trans-4-(4-methoxy-3-methylphenyl)cyclohexyl)methyl)carbamoyl)cyclohexyl 3-hydroxyazetidine-1-carboxylate] | ≤ 50
COc1ccc([C@H]2CC[C@H](CN(c3cccc(-c4cnn(C(C)C)c4)c3)C(=O)[C@H]3CC[C@H](OC(=O)N4CCN(C)CC4)CC3)CC2)cc1C [Compound 5.11, trans-4-((3-(1-Isopropyl-1H-pyrazol-4-yl)phenyl)((trans-4-(4-methoxy-3-methylphenyl)cyclohexyl)methyl)carbamoyl)cyclohexyl 4-methylpiperazine-1-carboxylate] | ≤ 50
COc1ccc(C23CCC(CN(c4cccc(-c5nnc(C6CC6)o5)c4)C(=O)[C@H]4CC[C@H](OC(=O)N5CC(O)C5)CC4)(CC2)CC3)cc1C [Compound 4.32, 4-((3-(5-Cyclopropyl-1,3,4-oxadiazol-2-yl)phenyl)((4-(4-methoxy-3-methylphenyl)bicyclo [2.2.2]octan-1-yl)methyl)carbamoyl)cyclohexyl trans-3-hydroxyazetidine-1-carboxylate] | ≤ 50
COc1ccc(C23CCC(CN(c4cc(-c5cnc(C(C)C)s5)ccn4)C(=O)[C@H]4CC[C@H](OC(=O)N5CC(O)C5)CC4)(CC2)CC3)cc1C [Compound 4.21, 4-((4-(2-Isopropylthiazol-5-yl)pyridin-2-yl)((4-(4-methoxy-3-methylphenyl)bicyclo[2.2.2]octan-1-yl)methyl)carbamoyl) cyclohexyl 3-hydroxyazetidine-trans-1-carboxylate] | ≤ 50
COc1ccc([C@H]2CC[C@H](CN(c3cc(-c4cnc(C(C)C)s4)ccn3)C(=O)[C@H]3CC[C@H](OC(=O)NCC(C)(C)O)CC3)CC2)cc1C [Compound 2.10, trans-4-((4-(2-Isopropylthiazol-5-yl)pyridin-2-yl)((trans-4-(4-methoxy-3-methylphenyl)cyclohexyl)methyl)carbamoyl) cyclohexyl(2-hydroxy-2-methylpropyl)carbamate] | ≤ 50
COc1ccc(C23CCC(CN(c4cc(-c5cnn(C(C)C)c5)ccn4)C(=O)[C@H]4CC[C@H](OC(=O)N5CCOCC5)CC4)(CC2)CC3)cc1C [Compound 4.14, 4-((4-(1-Isopropyl-1H-pyrazol-4-yl)pyridin-2-yl)((4-(4-methoxy-3-methylphenyl)bicyclo [2.2.2]octan-1-yl)methyl)carbamoyl)cyclohexyl morpholine-trans-4-carboxylate] | ≤ 50
COc1ccc(C23CCC(CN(c4cc(-c5cnn(C(C)C)c5)ccn4)C(=O)[C@H]4CC[C@H](OC(=O)N5CCN(C)CC5)CC4)(CC2)CC3)cc1C [Compound 4.15, 4-((4-(1-Isopropyl-1H-pyrazol-4-yl)pyridin-2-yl)((4-(4-methoxy-3-methylphenyl)bicyclo [2.2.2]octan-1-yl)methyl)carbamoyl)cyclohexyl 4-methylpiperazine-trans-1-carboxylate] | ≤ 50
CCc1ncc(-c2ccnc(N(C[C@H]3CC[C@H](c4ccc(OC)c(C)c4)CC3)C(=O)[C@H]3CC[C@H](OC(=O)N4CC(O)C4)CC3)c2)s1 [Compound 2.42, trans-4-((4-(2-Ethylthiazol-5-yl)pyridin-2-yl)((trans-4-(4-methoxy-3-methylphenyl)cyclohexyl)methyl)carbamoyl)cyclohexyl 3-hydroxyazetidine-1-carboxylate] | ≤ 50
COc1ccc([C@H]2CC[C@H](CN(c3cc(-c4cnn(C(C)C)c4)ccn3)C(=O)[C@H]3CC[C@H](OC(=O)NC4COC4)CC3)CC2)cc1C [Compound 2.51] | ≤ 50

Now from value to compound:

EC50 [nM] | Structure (SMILES)
50 to 1000 | COc1ccc([C@H]2CC[C@H](CN(c3cccc(-c4cnn(C(C)C)c4)c3)C(=O)[C@H]3CC[C@H](CNS(=O)(=O)C(C)C)CC3)CC2)cc1C [Compound 12.04, (trans)-N-(3-(1-Isopropyl-1H-pyrazol-4-yl)phenyl)-N-(((trans)-4-(4-methoxy-3-methylphenyl)cyclohexyl)methyl)-4-((1-methylethylsulfonamido)methyl)cy-clohexanecarboxamide]
50 to 1000 | COC(=O)CCC(=O)N[C@H]1CC[C@H](C(=O)N(C[C@H]2CC[C@H](c3ccc(OC)c(C)c3)CC2)c2cccc(-c3cnn(C(C)C)c3)c2)CC1 [Compound 10.04, Methyl 4-((trans-4-((3-(1-isopropyl-1H-pyrazol-4-yl)phenyl)((trans-4-(4-methoxy-3-methylphenyl)cyclohexyl)methyl)carbamoyl)cyclohexyl)amino)-4-oxobutanoate]
≤ 50 | COc1ccc(C23CCC(CN(c4cc(-c5cnn(C(C)C)c5)ccc4F)C(=O)[C@H]4CC[C@H](OC(=O)N5CC(O)C5)CC4)(CC2)CC3)cc1C [Compound 25.03, 4-((2-Fluoro-5-(1-isopropyl-1H-pyrazol-4-yl)phenyl)((4-(4-methoxy-3-methylphenyl)bicyclo[2.2.2]octan-1-yl)methyl)carbamoyl)cyclohexyl trans-3-hydroxyazetidine-1-carboxylate]
50 to 1000 | COc1ccc(C23CCC(CN(c4cc(-c5cnn(C(C)C)c5)ncn4)C(=O)[C@H]4CC[C@H](OC(=O)N5CC(C#N)C5)CC4)(CC2)CC3)cc1C [Compound 23.22, 4-((6-(1-Isopropyl-1H-pyrazol-4-yl)pyrimidin-4-yl)((4-(4-methoxy-3-methylphenyl)bi-cyclo[2.2.2]octan-1-yl)methyl)carbamoyl(trans-cyclohexyl) 3-cyanoazetidine-1-carboxylate]
≤ 50 | COc1ccc([C@H]2CC[C@H](CN(c3cccc(-c4cnn(C(C)C)c4)c3)C(=O)[C@H]3CC[C@H](NC(=O)C4CC(=O)C4)CC3)CC2)cc1C [Compound 14.01, trans-N-(3-(1-Isopropyl-1H-pyrazol-4-yl)phenyl)-N-((trans-4-(4-methoxy-3-methylphenyl)cyclohexyl)methyl)-4-(3-oxocyclobutanecarboxamido)cyclo-hexanecarboxamide]
≤ 50 | COc1ccc(C23CCC(CN(c4cc(-c5cnn(C(C)C)c5)ccn4)C(=O)[C@H]4CC[C@H](NC(=O)COCCCO)CC4)(CC2)CC3)cc1C [Compound 13.02, trans-4-(2-(3 Hydroxypropoxy)acetamido)-N-(4-(1-isopropyl-1H-pyrazol-4-yl)pyridin-2-yl)-N-((4-(4-methoxy-3-methylphenyl)bicyclo[2.2.2]octan-1-yl)methyl)cyclohexanecarboxamide]
≤ 50 | COc1ccc(C23CCC(CN(c4cc(-c5cnn(C6CCC6)c5)ccn4)C(=O)[C@H]4CC[C@H](OC(=O)N5CC(CO)C5)CC4)(CC2)CC3)cc1C [Compound 23.10, 4-((4-(1-Cyclobutyl-1H-pyrazol-4-yl)pyridin-2-yl)((4-(4-methoxy-3-methylphenyl)bicyclo[2.2.2]octan-1-yl)methyl)carbamoyl)(trans-cyclohexyl) 3-(hydroxymethyl)azetidine-1-carboxylate]
